# How the values were obtained:
# [1] = molecular target: Matrix metalloproteinase-9 (Homo sapiens, UniProt P14780); assay: Inhibition of human recombinant MMP9 after 1 hr
# [2] = molecular target: Macrophage metalloelastase (Homo sapiens, UniProt P39900); assay: Inhibition of human recombinant MMP12 after 1 hr
# [3] = molecular target: Stromelysin-1 (Homo sapiens, UniProt P08254); assay: Inhibition of human recombinant MMP3 after 1 hr
# [4] = molecular target: 72 kDa type IV collagenase (Homo sapiens, UniProt P08253); assay: Inhibition of human recombinant MMP2 after 1 hr
# Chain of 72 kDa type IV collagenase (P08253 whole entry): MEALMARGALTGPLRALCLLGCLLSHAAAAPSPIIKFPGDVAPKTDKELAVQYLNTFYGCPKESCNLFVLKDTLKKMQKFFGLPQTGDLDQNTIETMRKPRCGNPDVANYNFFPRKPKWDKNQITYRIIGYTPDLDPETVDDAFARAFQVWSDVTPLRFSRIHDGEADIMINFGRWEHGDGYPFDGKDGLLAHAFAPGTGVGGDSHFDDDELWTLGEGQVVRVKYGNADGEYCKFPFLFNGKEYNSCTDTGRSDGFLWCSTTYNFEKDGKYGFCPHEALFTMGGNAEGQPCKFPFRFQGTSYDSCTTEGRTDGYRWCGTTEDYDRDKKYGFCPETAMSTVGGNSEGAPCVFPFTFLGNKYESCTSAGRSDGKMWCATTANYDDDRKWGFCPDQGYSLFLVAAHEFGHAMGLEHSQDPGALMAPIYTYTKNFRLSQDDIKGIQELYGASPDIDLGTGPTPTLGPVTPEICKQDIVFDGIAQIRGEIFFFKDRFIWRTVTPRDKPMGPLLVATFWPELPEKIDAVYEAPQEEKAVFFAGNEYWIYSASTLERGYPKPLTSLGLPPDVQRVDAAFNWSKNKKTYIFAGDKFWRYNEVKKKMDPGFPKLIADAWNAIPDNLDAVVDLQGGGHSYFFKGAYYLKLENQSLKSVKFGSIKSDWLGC
# Chain of Macrophage metalloelastase (P39900 whole entry): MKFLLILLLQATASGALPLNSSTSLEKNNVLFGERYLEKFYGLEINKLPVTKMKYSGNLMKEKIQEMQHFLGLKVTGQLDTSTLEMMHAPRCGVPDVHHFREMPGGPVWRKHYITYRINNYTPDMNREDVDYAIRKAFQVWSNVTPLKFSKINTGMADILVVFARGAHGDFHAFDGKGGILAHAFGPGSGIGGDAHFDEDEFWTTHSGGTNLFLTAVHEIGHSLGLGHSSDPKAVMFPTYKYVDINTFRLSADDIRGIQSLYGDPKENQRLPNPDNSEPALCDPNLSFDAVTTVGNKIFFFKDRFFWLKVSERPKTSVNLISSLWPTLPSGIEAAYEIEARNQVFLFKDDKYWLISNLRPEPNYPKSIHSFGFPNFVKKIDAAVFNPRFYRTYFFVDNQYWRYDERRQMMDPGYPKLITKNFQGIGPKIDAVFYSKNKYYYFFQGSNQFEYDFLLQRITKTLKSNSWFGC
# Chain of Matrix metalloproteinase-9 (P14780 whole entry): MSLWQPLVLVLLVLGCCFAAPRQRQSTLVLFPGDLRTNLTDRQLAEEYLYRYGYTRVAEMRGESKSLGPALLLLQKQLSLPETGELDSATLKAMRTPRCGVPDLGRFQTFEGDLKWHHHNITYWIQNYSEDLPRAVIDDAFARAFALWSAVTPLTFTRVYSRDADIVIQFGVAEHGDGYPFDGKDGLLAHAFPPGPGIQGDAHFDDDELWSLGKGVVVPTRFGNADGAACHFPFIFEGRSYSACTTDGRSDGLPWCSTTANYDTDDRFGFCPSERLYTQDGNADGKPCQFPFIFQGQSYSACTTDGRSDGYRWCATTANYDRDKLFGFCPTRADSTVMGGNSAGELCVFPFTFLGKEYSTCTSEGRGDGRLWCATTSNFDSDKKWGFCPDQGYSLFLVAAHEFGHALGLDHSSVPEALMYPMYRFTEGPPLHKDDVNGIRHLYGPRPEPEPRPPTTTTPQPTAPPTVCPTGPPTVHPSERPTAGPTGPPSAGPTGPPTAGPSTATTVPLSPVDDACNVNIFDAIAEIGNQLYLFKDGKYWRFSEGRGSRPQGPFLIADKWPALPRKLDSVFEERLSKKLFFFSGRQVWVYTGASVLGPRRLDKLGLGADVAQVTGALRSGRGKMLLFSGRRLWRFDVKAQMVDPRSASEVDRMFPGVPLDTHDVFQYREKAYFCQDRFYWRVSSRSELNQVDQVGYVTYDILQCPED
# Chain of Stromelysin-1 (P08254 whole entry): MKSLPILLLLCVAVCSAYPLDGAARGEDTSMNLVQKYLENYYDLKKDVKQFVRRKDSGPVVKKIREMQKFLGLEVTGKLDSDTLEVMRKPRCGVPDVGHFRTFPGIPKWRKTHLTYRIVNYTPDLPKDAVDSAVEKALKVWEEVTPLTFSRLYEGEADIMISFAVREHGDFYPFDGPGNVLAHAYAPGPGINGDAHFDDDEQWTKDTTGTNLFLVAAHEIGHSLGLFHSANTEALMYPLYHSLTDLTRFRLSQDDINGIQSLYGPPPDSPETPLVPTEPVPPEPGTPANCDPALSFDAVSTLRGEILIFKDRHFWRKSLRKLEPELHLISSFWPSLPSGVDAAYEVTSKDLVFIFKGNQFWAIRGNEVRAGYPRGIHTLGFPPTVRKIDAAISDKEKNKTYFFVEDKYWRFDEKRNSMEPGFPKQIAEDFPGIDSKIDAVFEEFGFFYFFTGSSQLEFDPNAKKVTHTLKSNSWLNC
structure (smiles),measurement,setting,value
O=P(O)(O)C(Cl)(Cl)P(=O)(O)O [CLODRONIC ACID],IC50,[1],320 µM
same,IC50,[2],121 µM
same,IC50,[3],300 µM
same,IC50,[4],145 µM
